Assays:
[1] = system: bifid bacteria; experiment: Influence on growth-promoting activity for bifid bacteria in vivo (feces of volunteers); design: species or system human; conditions: after vs before 14-day administration; span over both saccharides
Protocol: The weight of daily feces before and after the 14-day administration tests, the relative change of feces' weight, the feces' pH, the total number of microorganisms per g of feces, the percentage of the number of bifid bacteria to the total number of microorganisms in feces, and the relative change of the total number of bifid bacteria were measured, followed by calculating the mean value of the five volunteers. Among these measurements, the total number of microorganisms was determined in accordance with the method as reported in "A Color Atlas of Anaerobic Bacteria", pp.53-65 (1984), edited by Tomotari MITSUOKA, published by Kabushiki Kaisha Sobunsha, Tokyo, Japan (1984): The colonies grown in 13 different types of media excluding M10 medium were judged for which genus they belong to and counted for cells. The cell count obtained with a specific medium, which gave the highest number of microorganisms for each genus, was determined to be a real cell count. The total cell count of microorganisms of all the genera was determined to be the total number of microorganisms in each volunteer's feces.

[2] = system: Enzyme from small intestinal mucus membrane; conditions: enzymes of small intestinal mucus membranes
[3] = system: Eubacterium aerofaciens ATCC 25986; experiment: Assimilation test by intestinal microorganism; type: cell-based; conditions: 0.5 w/v % saccharide in PYF broth, 37° C., 96 hours
[4] = system: Bacteroides distasonis JCM 5825; experiment: Assimilation test by intestinal microorganism; type: cell-based; conditions: 0.5 w/v % saccharide in PYF broth, 37° C., 96 hours
[5] = system: Bacteroides uniformis JCM 5828; experiment: Assimilation test by intestinal microorganism; type: cell-based; conditions: 0.5 w/v % saccharide in PYF broth, 37° C., 96 hours
[6] = system: Lactobacillus fermentum IFO 3959; experiment: Assimilation test by intestinal microorganism; type: cell-based; conditions: 0.5 w/v % saccharide in PYF broth, 37° C., 96 hours
[7] = system: crude glucosyltransferase specimen derived from Streptococcus sobrinus strain (ATCC 27351); experiment: Inhibition of insoluble glucan formation by glucosyltransferase from dental caries-inducing microorganism; type: biochemical; conditions: sucrose plus test saccharide (one ml of one w/v % each), pH 6.8, 37° C., 16 hours; for Yield of non-adsorbed glucans: sucrose alone 923; for Yield of adsorbed glucans: sucrose alone 1,160
Protocol: To a mixture solution consisting of one ml of one w/v % sucrose solution, one ml of one w/v % of a test saccharide solution, and 1.5 ml of 0.1M phosphate buffer (pH 6.8) was added 0.5 ml solution containing a crude glucosyltransferase specimen in a total protein content of 10 mg, and the mixture solution was placed in a small test tube which was then fixed and slanted to give a grade 30 degrees and allowed to react at 37° C. for 16 hours. The reaction mixture was transferred gently to another test tube and mixed with a solution obtained by washing carefully with 4 ml water the remaining substances adhered to the inner walls of the small test tube, and the mixture solution was centrifuged to obtain a precipitate as a non-adsorbed glucan. The amounts of the adsorbed- and non-adsorbed glucans thus obtained were respectively quantified by the anthrone-sulfuric acid method, and the total amount of them was regarded as the amount of the formed insoluble glucans. As a control system, a reaction system using water in place of the test saccharide solution, i.e. a reaction system using sucrose as a saccharide, was provided.

[8] = Acute toxicity test; type: in vivo; conditions: oral, mice, highest possible dose
From the text: As a result, no mouse died even when administered with a highest possible dose. This means that the LD50 is 50 g/kg mouse or more and concludes that it is extremely low in toxicity.

[9] = system: Bacteroides vulgatus JCM 5826; experiment: Assimilation test by intestinal microorganism; type: cell-based; conditions: 0.5 w/v % saccharide in PYF broth, 37° C., 96 hours
[10] = system: Bifidobacterium animalis JCM 1190; experiment: Assimilation test by intestinal microorganism; type: cell-based; conditions: 0.5 w/v % saccharide in PYF broth, 37° C., 96 hours
[11] = Maillard reaction (coloration with glycine); type: physicochemical; conditions: 10 w/v % saccharide, one w/v % glycine, 50 mM phosphate buffer pH 7.0, 100° C., 90 min; 1-cm cell
[12] = system: Bifidobacterium infantis JCM 1222; experiment: Assimilation test by intestinal microorganism; type: cell-based; conditions: 0.5 w/v % saccharide in PYF broth, 37° C., 96 hours
[13] = system: Clostridium ramosum JCM 1298; experiment: Assimilation test by intestinal microorganism; type: cell-based; conditions: 0.5 w/v % saccharide in PYF broth, 37° C., 96 hours
[14] = system: Clostridium perfringens JCM 3816; type: cell-based; conditions: 0.5 w/v % saccharide in PYF broth, 37° C., 96 hours
[15] = system: Streptococcus faecalis IAM 10065; experiment: Assimilation test by intestinal microorganism; type: cell-based; conditions: 0.5 w/v % saccharide in PYF broth, 37° C., 96 hours
[16] = system: Bifidobacterium adolescentis JCM 1275; experiment: Assimilation test by intestinal microorganism; type: cell-based; conditions: 0.5 w/v % saccharide in PYF broth, 37° C., 96 hours
[17] = system: Bifidobacterium breve JCM 1192; experiment: Assimilation test by intestinal microorganism; type: cell-based; conditions: 0.5 w/v % saccharide in PYF broth, 37° C., 96 hours
[18] = system: Bifidobacterium longum JCM 1217; experiment: Assimilation test by intestinal microorganism; type: cell-based; conditions: 0.5 w/v % saccharide in PYF broth, 37° C., 96 hours
[19] = system: Streptococcus sobrinus ATCC 27351; experiment: Acid formation by dental caries-inducing microorganisms; conditions: living wet cells, 0.02M saccharide, Stephen buffer pH 7.0, 37° C.; for pH at each fermentation time (min): 0: 0 min; for pH at each fermentation time (min): 5: 5 min; for pH at each fermentation time (min): 15: 15 min; for pH at each fermentation time (min): 30: 30 min; for pH at each fermentation time (min): 60: 60 min; for pH at each fermentation time (min): 90: 90 min
[20] = system: Peptostreptococcus prevotii ATCC 9321; experiment: Assimilation test by intestinal microorganism; type: cell-based; conditions: 0.5 w/v % saccharide in PYF broth, 37° C., 96 hours
[21] = system: Escherichia coli IFO 3301; experiment: Assimilation test by intestinal microorganism; type: cell-based; conditions: 0.5 w/v % saccharide in PYF broth, 37° C., 96 hours
[22] = system: bifid bacteria; experiment: Assimilation test by intestinal microorganism, overall judgement; type: cell-based; conditions: results of Tables 4 and 5
Protocol: To evaluate the growth rate of and to judge the assimilability by the microorganisms, the resultant broth was diluted 5-fold, and the turbidity of the dilution was measured at a wavelength of 750 nm in a 1-cm light-path cell. […] The criteria were in Table 3, and the results were in Tables 4 and 5: […]

[23] = system: Lactobacillus plantarum IFO 3070; experiment: Assimilation test by intestinal microorganism; type: cell-based; conditions: 0.5 w/v % saccharide in PYF broth, 37° C., 96 hours
[24] = system: Bifidobacterium bifidum JCM 1255; experiment: Assimilation test by intestinal microorganism; type: cell-based; conditions: 0.5 w/v % saccharide in PYF broth, 37° C., 96 hours
[25] = system: Clostridium butyricum JCM 1391; type: cell-based; conditions: 0.5 w/v % saccharide in PYF broth, 37° C., 96 hours

For `OC[C@H]1O[C@H](OC[C@H]2O[C@H](O[C@H]3O[C@H](CO)[C@@H](O)[C@H](O)[C@H]3O)[C@H](O)[C@@H](O)[C@@H]2O)[C@H](O)[C@@H](O)[C@@H]1O` [O-α-D-glucopyranosyl-(1→6)-α-D-glucopyranosyl α-D-glucopyranoside], the “Increase of the total cell count of bifid bacteria” value [1] was 2.3- to 2.5 fold, the “Digestibility, judgement in words” value [2] was “slightly hydrolyzed” and the “Judgement of assimilation (turbidity at a wavelength of 750 nm × 5)” value (“Judgement of assimilation” for short) [3] was “- (Less than 0.1)”. For the same compound, the “Judgement of assimilation” value [4] was “- (Less than 0.1)”, the “Judgement of assimilation” value [5] was “- (Less than 0.1)” and the “Judgement of assimilation” value [6] was “- (Less than 0.1)”. For the same compound, the “Yield of non-adsorbed glucans” value [7] was 118 µg/mL, the “Yield of adsorbed glucans” value [7] was 30 µg/mL and the “Mortality in acute toxicity test, in words” value [8] was “no mouse died”. For the same compound, the “Judgement of assimilation” value [9] was “- (Less than 0.1)”, the “Judgement of assimilation” value [10] was “+++ (0.3 or higher)” and the “Coloration degree (at a wavelength of 480 nm)” value [11] was 0.021. The “Judgement of assimilation” value [12] was “+++ (0.3 or higher)”, the “Judgement of assimilation” value [13] was “- (Less than 0.1)” and the “Judgement of assimilation” value [14] was “+ (0.15 or higher but less than 0.2)”. The “Judgement of assimilation” value [15] was “- (Less than 0.1)”, the “Judgement of assimilation” value [16] was “+++ (0.3 or higher)” and the “Judgement of assimilation” value [17] was “+++ (0.3 or higher)”. The “Judgement of assimilation” value [18] was “+++ (0.3 or higher)”, the “pH at each fermentation time (min): 0” value [19] was 7.0 and the “pH at each fermentation time (min): 5” value [19] was 7.0. For the same compound, the “pH at each fermentation time (min): 15” value [19] was 6.9, the “pH at each fermentation time (min): 30” value [19] was 6.9 and the “pH at each fermentation time (min): 60” value [19] was 6.9. For the same compound, the “pH at each fermentation time (min): 90” value [19] was 6.9, the “Judgement of assimilation” value [20] was “± (0.1 or higher but less than 0.15)” and the “Judgement of assimilation” value [21] was “- (Less than 0.1)”. For the same compound, the “Selective assimilability by bifid bacteria, in words” value [22] was “high in the selective assimilability by bifid bacteria”, the “Judgement of assimilation” value [23] was “- (Less than 0.1)” and the “Judgement of assimilation” value [24] was “++ (0.2 or higher but less than 0.3)”.
For `OC[C@H]1O[C@H](OC[C@H]2O[C@H](O[C@H]3O[C@H](CO[C@H]4O[C@H](CO)[C@@H](O)[C@H](O)[C@H]4O)[C@@H](O)[C@H](O)[C@H]3O)[C@H](O)[C@@H](O)[C@@H]2O)[C@H](O)[C@@H](O)[C@@H]1O` [α-Isomaltosyl α-isomaltoside, O-α-D-glucopyranosyl-(1→6)-α-D-glucopyranosyl O-α-D-glucopyranosyl-(1→6)-α-D-glucopyranoside], the “Increase of the total cell count of bifid bacteria” value [1] was 2.3- to 2.5 fold, the “Digestibility, judgement in words” value [2] was “relatively-low in digestibility” and the “Judgement of assimilation” value [3] was “- (Less than 0.1)”. The “Judgement of assimilation” value [4] was “- (Less than 0.1)”, the “Judgement of assimilation” value [5] was “- (Less than 0.1)” and the “Judgement of assimilation” value [6] was “- (Less than 0.1)”. The “Yield of non-adsorbed glucans” value [7] was 298 µg/mL, the “Yield of adsorbed glucans” value [7] was 72 µg/mL and the “Judgement of assimilation” value [9] was “- (Less than 0.1)”. For the same compound, the “Judgement of assimilation” value [25] was “+++ (0.3 or higher)”, the “Judgement of assimilation” value [10] was “+++ (0.3 or higher)” and the “Coloration degree (at a wavelength of 480 nm)” value [11] was 0.016. For the same compound, the “Judgement of assimilation” value [12] was “+++ (0.3 or higher)”, the “Judgement of assimilation” value [13] was “- (Less than 0.1)” and the “Judgement of assimilation” value [14] was “- (Less than 0.1)”. The “Judgement of assimilation” value [15] was “- (Less than 0.1)”, the “Judgement of assimilation” value [16] was “+++ (0.3 or higher)” and the “Judgement of assimilation” value [17] was “+++ (0.3 or higher)”. For the same compound, the “Judgement of assimilation” value [18] was “+++ (0.3 or higher)”, the “pH at each fermentation time (min): 0” value [19] was 7.0 and the “pH at each fermentation time (min): 5” value [19] was 7.0. For the same compound, the “pH at each fermentation time (min): 15” value [19] was 6.9, the “pH at each fermentation time (min): 30” value [19] was 6.9 and the “pH at each fermentation time (min): 60” value [19] was 6.9. The “pH at each fermentation time (min): 90” value [19] was 6.9, the “Judgement of assimilation” value [20] was “± (0.1 or higher but less than 0.15)” and the “Judgement of assimilation” value [21] was “- (Less than 0.1)”. For the same compound, the “Selective assimilability by bifid bacteria, in words” value [22] was “high in the selective assimilability by bifid bacteria”, the “Judgement of assimilation” value [23] was “- (Less than 0.1)” and the “Judgement of assimilation” value [24] was “++ (0.2 or higher but less than 0.3)”.

From patent US5883243A, “Non-reducing saccharides, their preparations and uses” (Kabushiki Kaisha Hayashibara Seibutsu Kagaku Kenkyujo, priority 1997, dated 1999)
